Reference: patent publication US10351548B2, “2-oxo-1,2-dihydropyridine-3-carboxamide compounds and their use as inhibitors of PDK1” (INTERNATIONAL SOCIETY FOR DRUG DEVELOPMENT S.R.L., priority 2015, dated 2019)
Like-named read-outs stand apart in the source and are kept apart here.

Experiments:
Experiment in all cases: IB35 kinases profiling at 100 nM (ZLYTE)
Type in all cases: biochemical
ABL1 = ABL1 (Homo sapiens (Human), UniProt P00519); conditions: IB35 100 nM, ATP Km app
Text: (§1) The results are reported below

AKT2 (PKB beta) = AKT2 (PKB beta) (Homo sapiens (Human), UniProt P31751); conditions: IB35 100 nM, ATP Km app
Text: as §1

AURKA (Aurora A) = AURKA (Aurora A) (Homo sapiens (Human), UniProt O14965); conditions: IB35 100 nM, ATP Km app
Sequence of AURKA (Aurora A) (O14965 whole entry): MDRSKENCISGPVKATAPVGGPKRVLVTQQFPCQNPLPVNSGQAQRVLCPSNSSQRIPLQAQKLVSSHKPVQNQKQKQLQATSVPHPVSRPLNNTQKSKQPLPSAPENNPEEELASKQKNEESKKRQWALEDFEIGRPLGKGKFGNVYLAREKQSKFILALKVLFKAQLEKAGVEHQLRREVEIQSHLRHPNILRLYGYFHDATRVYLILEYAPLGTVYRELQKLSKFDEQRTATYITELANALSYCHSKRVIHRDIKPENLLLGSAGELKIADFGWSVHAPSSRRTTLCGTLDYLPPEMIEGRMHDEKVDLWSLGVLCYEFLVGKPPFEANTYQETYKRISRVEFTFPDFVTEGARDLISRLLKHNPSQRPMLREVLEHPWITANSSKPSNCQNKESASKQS
Text: as §1

BRAF = BRAF (Homo sapiens (Human), UniProt P15056); conditions: IB35 100 nM, ATP 100
Text: as §1

CDC42 BPA (MRCKA) = CDC42 BPA (MRCKA) (Homo sapiens (Human), UniProt Q5VT25); conditions: IB35 100 nM, ATP Km app
Sequence of CDC42 BPA (MRCKA) (Q5VT25 whole entry): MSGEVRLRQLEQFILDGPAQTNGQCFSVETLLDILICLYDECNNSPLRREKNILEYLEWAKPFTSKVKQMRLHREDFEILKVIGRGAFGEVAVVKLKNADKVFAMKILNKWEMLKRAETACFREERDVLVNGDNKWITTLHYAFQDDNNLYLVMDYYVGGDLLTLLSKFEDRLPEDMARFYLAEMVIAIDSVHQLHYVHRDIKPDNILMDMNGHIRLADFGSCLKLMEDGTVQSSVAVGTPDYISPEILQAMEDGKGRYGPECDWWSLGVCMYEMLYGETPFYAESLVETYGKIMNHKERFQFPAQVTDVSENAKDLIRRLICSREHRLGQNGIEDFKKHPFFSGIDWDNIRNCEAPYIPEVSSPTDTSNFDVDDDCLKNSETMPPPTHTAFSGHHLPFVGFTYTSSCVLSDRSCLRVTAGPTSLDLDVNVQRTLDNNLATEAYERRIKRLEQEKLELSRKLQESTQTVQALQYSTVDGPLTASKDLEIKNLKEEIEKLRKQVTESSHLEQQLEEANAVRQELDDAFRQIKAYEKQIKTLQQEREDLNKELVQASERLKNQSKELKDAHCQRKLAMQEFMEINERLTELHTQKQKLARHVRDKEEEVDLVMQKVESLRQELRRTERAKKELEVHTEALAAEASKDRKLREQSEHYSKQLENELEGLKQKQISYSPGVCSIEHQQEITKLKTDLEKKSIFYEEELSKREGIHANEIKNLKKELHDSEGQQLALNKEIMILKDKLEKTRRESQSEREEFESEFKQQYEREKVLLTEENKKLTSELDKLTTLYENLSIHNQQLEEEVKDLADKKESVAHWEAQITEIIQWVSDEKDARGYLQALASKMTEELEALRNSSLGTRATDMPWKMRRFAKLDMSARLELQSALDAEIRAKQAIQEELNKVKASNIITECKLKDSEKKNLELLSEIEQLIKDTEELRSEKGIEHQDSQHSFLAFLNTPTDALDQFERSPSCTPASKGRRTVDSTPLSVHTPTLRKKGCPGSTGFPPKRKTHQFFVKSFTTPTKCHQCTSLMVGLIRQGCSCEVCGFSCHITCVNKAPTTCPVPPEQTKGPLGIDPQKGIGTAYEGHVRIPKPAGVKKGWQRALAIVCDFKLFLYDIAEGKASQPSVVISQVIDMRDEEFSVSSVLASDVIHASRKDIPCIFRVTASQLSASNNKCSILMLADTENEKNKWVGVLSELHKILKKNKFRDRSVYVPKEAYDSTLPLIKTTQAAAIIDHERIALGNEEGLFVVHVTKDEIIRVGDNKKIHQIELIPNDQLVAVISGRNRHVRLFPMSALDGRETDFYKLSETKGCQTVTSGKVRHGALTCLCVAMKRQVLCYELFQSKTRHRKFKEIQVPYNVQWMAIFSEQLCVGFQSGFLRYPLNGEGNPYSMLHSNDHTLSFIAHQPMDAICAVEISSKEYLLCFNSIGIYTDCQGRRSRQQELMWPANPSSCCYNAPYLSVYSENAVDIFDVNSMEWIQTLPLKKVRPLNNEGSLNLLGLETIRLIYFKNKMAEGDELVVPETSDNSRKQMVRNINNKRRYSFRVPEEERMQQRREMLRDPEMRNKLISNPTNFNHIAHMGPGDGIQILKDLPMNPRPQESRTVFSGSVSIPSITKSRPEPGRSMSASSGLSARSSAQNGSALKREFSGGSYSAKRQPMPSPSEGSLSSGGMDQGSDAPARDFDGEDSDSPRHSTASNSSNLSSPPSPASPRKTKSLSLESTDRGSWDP
Text: as §1

CDK2/cyclin A = CDK2/cyclin A (Homo sapiens (Human), UniProt P24941); conditions: IB35 100 nM, ATP Km app
Text: as §1

CDK5/p25 = CDK5/p25 (Homo sapiens (Human), UniProt Q00535); conditions: IB35 100 nM, ATP Km app
Sequence of CDK5/p25 (Q00535 whole entry): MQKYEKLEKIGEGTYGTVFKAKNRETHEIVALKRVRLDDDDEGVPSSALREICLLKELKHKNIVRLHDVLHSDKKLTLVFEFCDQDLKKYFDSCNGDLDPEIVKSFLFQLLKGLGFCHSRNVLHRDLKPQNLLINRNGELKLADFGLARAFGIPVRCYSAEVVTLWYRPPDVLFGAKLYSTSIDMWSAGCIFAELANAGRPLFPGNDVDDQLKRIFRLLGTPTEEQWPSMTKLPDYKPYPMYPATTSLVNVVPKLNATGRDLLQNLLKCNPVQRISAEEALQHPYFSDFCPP
Sequence of CDK5/p25 (Q15078 99-307 partner): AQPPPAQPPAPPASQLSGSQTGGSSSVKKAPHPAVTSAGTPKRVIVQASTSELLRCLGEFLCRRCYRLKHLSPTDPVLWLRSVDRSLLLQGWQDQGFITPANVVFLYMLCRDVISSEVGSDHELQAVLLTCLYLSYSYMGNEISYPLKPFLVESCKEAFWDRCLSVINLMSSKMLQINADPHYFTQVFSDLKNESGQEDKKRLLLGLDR
Text: as §1

CSNK1A1 (CK1 alpha 1) = CSNK1A1 (CK1 alpha 1) (Homo sapiens (Human), UniProt P48729); conditions: IB35 100 nM, ATP Km app
Sequence of CSNK1A1 (CK1 alpha 1) (P48729 whole entry, species assumed): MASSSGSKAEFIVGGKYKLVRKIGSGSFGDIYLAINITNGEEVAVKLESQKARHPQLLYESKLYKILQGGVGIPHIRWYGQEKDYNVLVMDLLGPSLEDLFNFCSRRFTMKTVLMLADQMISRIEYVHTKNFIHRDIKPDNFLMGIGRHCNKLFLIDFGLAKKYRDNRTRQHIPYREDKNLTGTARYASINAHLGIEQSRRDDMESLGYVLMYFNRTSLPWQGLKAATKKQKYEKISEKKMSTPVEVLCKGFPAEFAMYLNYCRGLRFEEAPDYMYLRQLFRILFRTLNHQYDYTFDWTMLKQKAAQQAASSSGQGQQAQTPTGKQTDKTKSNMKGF
Text: as §1

CSNK1G1 (CK1 gamma 1) = CSNK1G1 (CK1 gamma 1) (Homo sapiens (Human), UniProt Q9HCP0); conditions: IB35 100 nM, ATP Km app
Text: as §1

CSNK2A2 (CK2 alpha 2) = CSNK2A2 (CK2 alpha 2) (Homo sapiens (Human), UniProt P19784); conditions: IB35 100 nM, ATP Km app
Sequence of CSNK2A2 (CK2 alpha 2) (P19784 whole entry, species assumed): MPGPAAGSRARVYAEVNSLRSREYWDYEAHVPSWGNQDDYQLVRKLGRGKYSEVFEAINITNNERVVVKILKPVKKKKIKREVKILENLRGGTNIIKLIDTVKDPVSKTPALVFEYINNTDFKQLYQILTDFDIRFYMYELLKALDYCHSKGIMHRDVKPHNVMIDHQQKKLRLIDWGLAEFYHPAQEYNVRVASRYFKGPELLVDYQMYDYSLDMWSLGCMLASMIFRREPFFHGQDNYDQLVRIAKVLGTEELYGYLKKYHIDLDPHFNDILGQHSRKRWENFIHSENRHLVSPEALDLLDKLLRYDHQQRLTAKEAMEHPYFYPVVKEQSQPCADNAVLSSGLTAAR
Text: as §1

GSK3A (GSK3 alpha) = GSK3A (GSK3 alpha) (Homo sapiens (Human), UniProt P49840); conditions: IB35 100 nM, ATP Km app
Text: as §1

GSK3B (GSK3 beta) = GSK3B (GSK3 beta) (Homo sapiens (Human), UniProt P49841); conditions: IB35 100 nM, ATP Km app
Text: as §1

LCK = LCK (Homo sapiens (Human), UniProt P06239); conditions: IB35 100 nM, ATP Km app
Text: as §1

MAP2K1 (MEK1) = MAP2K1 (MEK1) (Homo sapiens (Human), UniProt Q02750); conditions: IB35 100 nM, ATP 100
Text: as §1

MAP2K2 (MEK2) = MAP2K2 (MEK2) (Homo sapiens (Human), UniProt P36507); conditions: IB35 100 nM, ATP 100
Text: as §1

MAPK1 (ERK2) = MAPK1 (ERK2) (Homo sapiens (Human), UniProt P28482); conditions: IB35 100 nM, ATP Km app
Text: as §1

[1] = biological target: MAPK14 (p38 alpha) Direct (Homo sapiens (Human), UniProt Q16539); conditions: IB35 100 nM, ATP Km app
Sequence of MAPK14 (p38 alpha) Direct (Q16539 whole entry): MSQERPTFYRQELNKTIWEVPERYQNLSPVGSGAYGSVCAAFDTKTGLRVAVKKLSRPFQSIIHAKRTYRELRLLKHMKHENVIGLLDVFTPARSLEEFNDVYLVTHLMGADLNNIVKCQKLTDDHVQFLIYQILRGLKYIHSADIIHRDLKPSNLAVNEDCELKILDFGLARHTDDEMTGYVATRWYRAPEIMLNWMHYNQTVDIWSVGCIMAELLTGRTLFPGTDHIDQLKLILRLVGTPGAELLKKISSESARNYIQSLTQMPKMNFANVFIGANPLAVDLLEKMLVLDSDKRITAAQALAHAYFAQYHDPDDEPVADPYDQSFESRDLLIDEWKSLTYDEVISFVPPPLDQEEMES
Text: as §1

MAPK3 (ERK1) = MAPK3 (ERK1) (Homo sapiens (Human), UniProt P27361); conditions: IB35 100 nM, ATP Km app
Text: as §1

MAPK8 (JNK1) = MAPK8 (JNK1) (Homo sapiens (Human), UniProt P45983); conditions: IB35 100 nM, ATP 100
Text: as §1

PAK6 = PAK6 (Homo sapiens (Human), UniProt Q9NQU5); conditions: IB35 100 nM, ATP Km app
Text: as §1

PRKCA (PKC alpha) = PRKCA (PKC alpha) (Homo sapiens (Human), UniProt P17252); conditions: IB35 100 nM, ATP Km app
Text: as §1

PRKCB1 (PKC beta I) = PRKCB1 (PKC beta I) (Homo sapiens (Human), UniProt P05771); conditions: IB35 100 nM, ATP Km app
Sequence of PRKCB1 (PKC beta I) (P05771 whole entry, species assumed): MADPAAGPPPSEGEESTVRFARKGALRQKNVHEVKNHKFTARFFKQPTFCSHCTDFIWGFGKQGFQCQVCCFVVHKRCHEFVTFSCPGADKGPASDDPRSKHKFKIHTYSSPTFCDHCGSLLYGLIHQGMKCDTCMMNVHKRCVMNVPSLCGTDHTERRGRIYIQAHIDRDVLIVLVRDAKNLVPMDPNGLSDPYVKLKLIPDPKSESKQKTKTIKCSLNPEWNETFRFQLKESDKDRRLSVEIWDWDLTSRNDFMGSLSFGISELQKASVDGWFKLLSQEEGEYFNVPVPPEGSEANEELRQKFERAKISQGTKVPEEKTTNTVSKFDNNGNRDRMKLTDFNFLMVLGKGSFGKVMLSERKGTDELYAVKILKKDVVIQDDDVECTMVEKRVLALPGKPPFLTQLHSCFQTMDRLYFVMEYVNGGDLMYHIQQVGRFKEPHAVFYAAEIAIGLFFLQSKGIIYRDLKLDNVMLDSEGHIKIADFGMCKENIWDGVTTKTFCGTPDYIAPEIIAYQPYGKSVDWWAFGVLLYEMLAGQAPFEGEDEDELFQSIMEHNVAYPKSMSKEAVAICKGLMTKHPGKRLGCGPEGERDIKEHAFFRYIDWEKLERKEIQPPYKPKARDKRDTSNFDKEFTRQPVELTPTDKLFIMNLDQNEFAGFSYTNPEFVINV
Text: as §1

PRKCE (PKC epsilon) = PRKCE (PKC epsilon) (Homo sapiens (Human), UniProt Q02156); conditions: IB35 100 nM, ATP Km app
Text: as §1

RAF1 (cRAF) Y340D Y341D = RAF1 (cRAF) Y340D Y341D (Homo sapiens (Human), UniProt P04049, Y340D/Y341D); conditions: IB35 100 nM, ATP 100
Sequence of RAF1 (cRAF) Y340D Y341D (P04049 whole entry Y340D/Y341D, species assumed): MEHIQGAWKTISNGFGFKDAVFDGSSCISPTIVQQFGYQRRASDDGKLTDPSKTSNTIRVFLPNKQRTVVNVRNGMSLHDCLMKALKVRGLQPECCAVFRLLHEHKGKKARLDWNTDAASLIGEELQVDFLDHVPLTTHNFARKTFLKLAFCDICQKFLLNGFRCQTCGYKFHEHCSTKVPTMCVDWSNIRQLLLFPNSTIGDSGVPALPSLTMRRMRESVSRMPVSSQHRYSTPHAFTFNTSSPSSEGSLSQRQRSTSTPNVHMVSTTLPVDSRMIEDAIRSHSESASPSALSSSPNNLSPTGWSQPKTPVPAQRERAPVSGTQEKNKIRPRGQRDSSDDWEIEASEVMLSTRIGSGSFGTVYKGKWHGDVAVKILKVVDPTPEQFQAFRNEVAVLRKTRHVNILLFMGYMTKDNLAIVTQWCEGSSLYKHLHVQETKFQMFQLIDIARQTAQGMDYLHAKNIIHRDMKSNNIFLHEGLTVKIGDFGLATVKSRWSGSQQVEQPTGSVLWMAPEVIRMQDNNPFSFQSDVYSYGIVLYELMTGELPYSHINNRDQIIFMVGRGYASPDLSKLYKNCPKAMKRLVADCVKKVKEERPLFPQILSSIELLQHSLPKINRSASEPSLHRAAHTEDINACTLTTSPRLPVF
Text: as §1

ROCK1 = ROCK1 (Homo sapiens (Human), UniProt Q13464); conditions: IB35 100 nM, ATP Km app
Text: as §1

RPS6KA1 (RSK1) = RPS6KA1 (RSK1) (Homo sapiens (Human), UniProt Q15418); conditions: IB35 100 nM, ATP Km app
Text: as §1

Work on `O=C(CNC(=O)c1cccn(Cc2ccc(F)c(F)c2)c1=O)Nc1ccc2c(c1)/C(=C/c1cnc[nH]1)C(=O)N2` [IB35, (Z)—N-(2-((3-((1H-imidazol-5-yl)methylene)-2-oxoindolin-5-yl)amino)-2-oxoethyl)-1-(3,4-difluorobenzyl)-2-oxo-1,2-dihydro pyridine-3-carboxamide] yielded an inhibition at 0.1 µM (ABL1; read-out: % Inhibition 1) of 17%, an inhibition at 0.1 µM (ABL1; read-out: % Inhibition 2) of 12% and an inhibition at 0.1 µM (ABL1; read-out: % Inhibition Avg) of 14%. It also gave an inhibition at 0.1 µM (AKT2 (PKB beta); read-out: % Inhibition 1) of 0%, an inhibition at 0.1 µM (AKT2 (PKB beta); read-out: % Inhibition 2) of -9% and an inhibition at 0.1 µM (AKT2 (PKB beta); read-out: % Inhibition Avg) of -4%. It also gave an inhibition at 0.1 µM (AURKA (Aurora A); read-out: % Inhibition 1) of 37%, an inhibition at 0.1 µM (AURKA (Aurora A); read-out: % Inhibition 2) of 38% and an inhibition at 0.1 µM (AURKA (Aurora A); read-out: % Inhibition Avg) of 38%. The inhibition at 0.1 µM (BRAF; read-out: % Inhibition 1) was 16%, the inhibition at 0.1 µM (BRAF; read-out: % Inhibition 2) was 17% and the inhibition at 0.1 µM (BRAF; read-out: % Inhibition Avg) was 17%. It also gave an inhibition at 0.1 µM (CDC42 BPA (MRCKA); read-out: % Inhibition 1) of -1%, an inhibition at 0.1 µM (CDC42 BPA (MRCKA); read-out: % Inhibition 2) of -6% and an inhibition at 0.1 µM (CDC42 BPA (MRCKA); read-out: % Inhibition Avg) of -3%. For the same molecule, the inhibition at 0.1 µM (CDK2/cyclin A; read-out: % Inhibition 1) was -1%, the inhibition at 0.1 µM (CDK2/cyclin A; read-out: % Inhibition 2) was 8% and the inhibition at 0.1 µM (CDK2/cyclin A; read-out: % Inhibition Avg) was 4%. The inhibition at 0.1 µM (CDK5/p25; read-out: % Inhibition 1) was -7%, the inhibition at 0.1 µM (CDK5/p25; read-out: % Inhibition 2) was -10% and the inhibition at 0.1 µM (CDK5/p25; read-out: % Inhibition Avg) was -8%. It also gave an inhibition at 0.1 µM (CSNK1A1 (CK1 alpha 1); read-out: % Inhibition 1) of -3%, an inhibition at 0.1 µM (CSNK1A1 (CK1 alpha 1); read-out: % Inhibition 2) of -2% and an inhibition at 0.1 µM (CSNK1A1 (CK1 alpha 1); read-out: % Inhibition Avg) of -2%. For the same molecule, the inhibition at 0.1 µM (CSNK1G1 (CK1 gamma 1); read-out: % Inhibition 1) was 3%, the inhibition at 0.1 µM (CSNK1G1 (CK1 gamma 1); read-out: % Inhibition 2) was 2% and the inhibition at 0.1 µM (CSNK1G1 (CK1 gamma 1); read-out: % Inhibition Avg) was 3%. The inhibition at 0.1 µM (CSNK2A2 (CK2 alpha 2); read-out: % Inhibition 1) was 4%, the inhibition at 0.1 µM (CSNK2A2 (CK2 alpha 2); read-out: % Inhibition 2) was 3% and the inhibition at 0.1 µM (CSNK2A2 (CK2 alpha 2); read-out: % Inhibition Avg) was 3%. For the same molecule, the inhibition at 0.1 µM (GSK3A (GSK3 alpha); read-out: % Inhibition 1) was 43%, the inhibition at 0.1 µM (GSK3A (GSK3 alpha); read-out: % Inhibition 2) was 43% and the inhibition at 0.1 µM (GSK3A (GSK3 alpha); read-out: % Inhibition Avg) was 43%. It also gave an inhibition at 0.1 µM (GSK3B (GSK3 beta); read-out: % Inhibition 1) of 23%, an inhibition at 0.1 µM (GSK3B (GSK3 beta); read-out: % Inhibition 2) of 25% and an inhibition at 0.1 µM (GSK3B (GSK3 beta); read-out: % Inhibition Avg) of 24%. It also gave an inhibition at 0.1 µM (LCK; read-out: % Inhibition 1) of 10%, an inhibition at 0.1 µM (LCK; read-out: % Inhibition 2) of 8% and an inhibition at 0.1 µM (LCK; read-out: % Inhibition Avg) of 9%. The inhibition at 0.1 µM (MAP2K1 (MEK1); read-out: % Inhibition 1) was -20%, the inhibition at 0.1 µM (MAP2K1 (MEK1); read-out: % Inhibition 2) was -6% and the inhibition at 0.1 µM (MAP2K1 (MEK1); read-out: % Inhibition Avg) was -13%. For the same molecule, the inhibition at 0.1 µM (MAP2K2 (MEK2); read-out: % Inhibition 1) was 13%, the inhibition at 0.1 µM (MAP2K2 (MEK2); read-out: % Inhibition 2) was 6% and the inhibition at 0.1 µM (MAP2K2 (MEK2); read-out: % Inhibition Avg) was 9%. It also gave an inhibition at 0.1 µM (MAPK1 (ERK2); read-out: % Inhibition 1) of 5%, an inhibition at 0.1 µM (MAPK1 (ERK2); read-out: % Inhibition 2) of 6% and an inhibition at 0.1 µM (MAPK1 (ERK2); read-out: % Inhibition Avg) of 6%. For the same molecule, the inhibition at 0.1 µM ([1]; read-out: % Inhibition 1) was 2%, the inhibition at 0.1 µM ([1]; read-out: % Inhibition 2) was 4% and the inhibition at 0.1 µM ([1]; read-out: % Inhibition Avg) was 3%. It also gave an inhibition at 0.1 µM (MAPK3 (ERK1); read-out: % Inhibition 1) of -8%, an inhibition at 0.1 µM (MAPK3 (ERK1); read-out: % Inhibition 2) of 1% and an inhibition at 0.1 µM (MAPK3 (ERK1); read-out: % Inhibition Avg) of -3%. It also gave an inhibition at 0.1 µM (MAPK8 (JNK1); read-out: % Inhibition 1) of 4%, an inhibition at 0.1 µM (MAPK8 (JNK1); read-out: % Inhibition 2) of 21% and an inhibition at 0.1 µM (MAPK8 (JNK1); read-out: % Inhibition Avg) of 12%. For the same molecule, the inhibition at 0.1 µM (PAK6; read-out: % Inhibition 1) was 1%, the inhibition at 0.1 µM (PAK6; read-out: % Inhibition 2) was -9% and the inhibition at 0.1 µM (PAK6; read-out: % Inhibition Avg) was -4%. The inhibition at 0.1 µM (PRKCA (PKC alpha); read-out: % Inhibition 1) was -2%, the inhibition at 0.1 µM (PRKCA (PKC alpha); read-out: % Inhibition 2) was 2% and the inhibition at 0.1 µM (PRKCA (PKC alpha); read-out: % Inhibition Avg) was 0%. The inhibition at 0.1 µM (PRKCB1 (PKC beta I); read-out: % Inhibition 1) was -10%, the inhibition at 0.1 µM (PRKCB1 (PKC beta I); read-out: % Inhibition 2) was -10% and the inhibition at 0.1 µM (PRKCB1 (PKC beta I); read-out: % Inhibition Avg) was -10%. It also gave an inhibition at 0.1 µM (PRKCE (PKC epsilon); read-out: % Inhibition 1) of 4%, an inhibition at 0.1 µM (PRKCE (PKC epsilon); read-out: % Inhibition 2) of 3% and an inhibition at 0.1 µM (PRKCE (PKC epsilon); read-out: % Inhibition Avg) of 3%. It also gave an inhibition at 0.1 µM (RAF1 (cRAF) Y340D Y341D; read-out: % Inhibition 1) of 10%, an inhibition at 0.1 µM (RAF1 (cRAF) Y340D Y341D; read-out: % Inhibition 2) of 11% and an inhibition at 0.1 µM (RAF1 (cRAF) Y340D Y341D; read-out: % Inhibition Avg) of 10%. The inhibition at 0.1 µM (ROCK1; read-out: % Inhibition 1) was -9%, the inhibition at 0.1 µM (ROCK1; read-out: % Inhibition 2) was -6% and the inhibition at 0.1 µM (ROCK1; read-out: % Inhibition Avg) was -7%. For the same molecule, the inhibition at 0.1 µM (RPS6KA1 (RSK1); read-out: % Inhibition 1) was -3%, the inhibition at 0.1 µM (RPS6KA1 (RSK1); read-out: % Inhibition 2) was 7% and the inhibition at 0.1 µM (RPS6KA1 (RSK1); read-out: % Inhibition Avg) was 2%.
